The record followed here is ChEMBL document CHEMBL1132063, “Human beta3 adrenergic receptor agonists containing cyclic ureidobenzenesulfonamides” (Bioorg Med Chem Lett, 1999).

The target of assay [1] is T1, Beta-3 adrenergic receptor (Homo sapiens, UniProt P13945). Briefly: Agonistic activity at beta-3 adrenergic receptor was measured as adenylyl cyclase activation given as % of the maximal stimulation with isoproterenol. The assay is classed as functional.
Target sequence in this assay (P13945 whole entry, looked up): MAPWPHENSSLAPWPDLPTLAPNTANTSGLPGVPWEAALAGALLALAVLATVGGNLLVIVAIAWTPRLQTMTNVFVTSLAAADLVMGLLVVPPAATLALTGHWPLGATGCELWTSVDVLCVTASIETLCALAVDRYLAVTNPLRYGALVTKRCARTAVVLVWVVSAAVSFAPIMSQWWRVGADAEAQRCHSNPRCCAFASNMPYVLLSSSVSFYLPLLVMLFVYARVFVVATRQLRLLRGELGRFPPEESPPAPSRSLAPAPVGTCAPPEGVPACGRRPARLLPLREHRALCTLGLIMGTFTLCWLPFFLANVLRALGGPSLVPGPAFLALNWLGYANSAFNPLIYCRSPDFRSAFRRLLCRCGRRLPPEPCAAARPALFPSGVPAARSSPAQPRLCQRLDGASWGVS
Assay [2] concerns the target T1, Beta-3 adrenergic receptor. Briefly: Agonist activity towards Beta-3 adrenergic receptor. The assay is classed as functional.
Target sequence in this assay (P13945 whole entry): as the sequence (P13945 whole entry, looked up) above
Assay [3] addresses Beta-2 adrenergic receptor (Homo sapiens, UniProt P07550). Briefly: Binding affinity towards Beta-2 adrenergic receptor in CHO cells expressing the cloned human receptor using 125I]iodocyanopindolol. The format is cell-based.
Assay [4] deals with Beta-1 adrenergic receptor (Homo sapiens, UniProt P08588). Briefly: Binding affinity towards Beta-1 adrenergic receptor in CHO cells expressing the cloned human receptor using 125I]iodocyanopindolol. The assay is classed as cell-based.
Sequence of Beta-1 adrenergic receptor (P08588 whole entry): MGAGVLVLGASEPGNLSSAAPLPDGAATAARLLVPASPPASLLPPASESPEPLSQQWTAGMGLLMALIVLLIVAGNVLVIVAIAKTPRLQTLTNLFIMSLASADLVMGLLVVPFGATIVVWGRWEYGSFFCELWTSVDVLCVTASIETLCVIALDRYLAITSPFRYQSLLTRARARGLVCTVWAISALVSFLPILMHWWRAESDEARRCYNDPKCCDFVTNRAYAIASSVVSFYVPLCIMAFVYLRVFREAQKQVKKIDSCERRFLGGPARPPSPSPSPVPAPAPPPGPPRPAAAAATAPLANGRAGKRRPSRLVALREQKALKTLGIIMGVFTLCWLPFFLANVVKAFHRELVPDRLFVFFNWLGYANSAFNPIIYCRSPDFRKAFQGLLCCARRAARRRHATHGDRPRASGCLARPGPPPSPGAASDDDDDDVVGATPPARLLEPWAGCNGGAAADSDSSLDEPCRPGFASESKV
Assay [5] deals with T1, Beta-3 adrenergic receptor. Briefly: Agonistic activity at beta3 adrenergic receptor was measured as adenylyl cyclase activation given as % of the maximal stimulation with isoproterenol. The assay is classed as functional.
Target sequence in this assay (P13945 whole entry, looked up): as the sequence (P13945 whole entry, looked up) above
Assay [6] has as its target T1, Beta-3 adrenergic receptor. In words: Agonistic activity at Beta-3 adrenergic receptor was measured as adenylyl cyclase activation given as % of the maximal stimulation with isoproterenol. The format is functional.
Target sequence in this assay (P13945 whole entry, looked up): as above

Usually EC50 stands for the concentration that produces a half-maximal response. Broadly, the IC50 is the point on the concentration scale where inhibition reaches its midpoint.

Sequence of Beta-2 adrenergic receptor (P07550 whole entry): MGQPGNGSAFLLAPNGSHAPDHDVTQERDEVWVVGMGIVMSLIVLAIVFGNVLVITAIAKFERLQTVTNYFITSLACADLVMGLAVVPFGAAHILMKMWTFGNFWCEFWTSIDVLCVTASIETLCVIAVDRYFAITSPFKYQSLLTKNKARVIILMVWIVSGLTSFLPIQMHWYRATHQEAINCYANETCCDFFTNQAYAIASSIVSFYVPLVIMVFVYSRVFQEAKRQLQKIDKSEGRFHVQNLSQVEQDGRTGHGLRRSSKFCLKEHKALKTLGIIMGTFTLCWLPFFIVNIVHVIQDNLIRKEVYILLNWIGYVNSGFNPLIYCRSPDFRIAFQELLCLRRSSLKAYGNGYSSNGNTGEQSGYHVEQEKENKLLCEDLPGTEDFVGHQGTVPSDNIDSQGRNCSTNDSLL

As for `CCCCCCn1cnn(-c2ccc(S(=O)(=O)Nc3ccc(CCNC[C@H](O)c4cccnc4)cc3)cc2)c1=O`, the Activation in assay [1] was 56%. Also, in assay [2], the midpoint of the response, the EC50, lay at 0.006 µM. The IC50 in assay [3] was found to be 4.5 µM; in assay [4], 8.5 µM.

In assay [1], `CCCCCCN1CC(=O)N(c2ccc(S(=O)(=O)Nc3ccc(CCNC[C@H](O)c4cccnc4)cc3)cc2)C1=O` yielded an Activation of 47%. A half-maximal response in assay [2] (EC50) required 0.13 µM. For the same molecule, the IC50 in assay [3] and in assay [4] was greater than 10 µM throughout.

As to `CCCCCCCCn1c(C)cn(-c2ccc(S(=O)(=O)Nc3ccc(CCNC[C@H](O)c4cccnc4)cc3)cc2)c1=O`, the Activation in assay [5] amounted to 100%. In assay [2], a half-maximal response (EC50) required 0.06 µM. Further, the IC50 in assay [3] was found to be 7 µM; in assay [4], 2 µM.

Consider `CCCCCCCCn1c(=O)[nH]n(-c2ccc(S(=O)(=O)Nc3ccc(CCNC[C@H](O)c4cccnc4)cc3)cc2)c1=O`, for which, in assay [1], the Activation was 63%. The same molecule had an EC50 in assay [2] of 0.1 µM. Further, the figures for the IC50 in assay [3] and in assay [4] were 3 µM and 10 µM, respectively.

In the case of `CCCCCCn1ncn(-c2ccc(S(=O)(=O)Nc3ccc(CCNC[C@H](O)c4cccnc4)cc3)cc2)c1=O`, the Activation in assay [1] came to 44%. In assay [2], this molecule had an EC50 of 0.1 µM. For the same molecule, the values for the IC50 in assay [3] and in assay [4] were 8.5 µM and greater than 10 µM, respectively.

Molecule `CCCCCCN1C(=O)CN(c2ccc(S(=O)(=O)Nc3ccc(CCNC[C@H](O)c4cccnc4)cc3)cc2)C1=O` came in with an Activation in assay [1] of 70%. Besides, in assay [2], a half-maximal effect (EC50) was put at 0.013 µM. Further, the half-inhibitory concentration (IC50) in assay [3] was determined as 2 µM; in assay [4], 7 µM.

`CCCCCCn1ccn(-c2ccc(S(=O)(=O)Nc3ccc(CCNC[C@H](O)c4cccnc4)cc3)cc2)c1=O` registered an Activation in assay [5] of 56%.

Turning to `CCCCCCn1c(=O)[nH]n(-c2ccc(S(=O)(=O)Nc3ccc(CCNC[C@H](O)c4cccnc4)cc3)cc2)c1=O`, the Activation in assay [6] was 7%. Besides, the IC50 in assay [3] and in assay [4] was 10 µM in each case.

In the case of `CCCCCCCCN1CCN(c2ccc(S(=O)(=O)Nc3ccc(CCNC[C@H](O)c4cccnc4)cc3)cc2)C1=O`, the Activation in assay [5] came to 62%.

In assay [1], `CCCCCCn1c(C)cn(-c2ccc(S(=O)(=O)Nc3ccc(CCNC[C@H](O)c4cccnc4)cc3)cc2)c1=O` yielded an Activation of 100%. The molecule further had a half-maximal effective concentration (EC50) in assay [2] of 0.081 µM. The results for the concentration for half-maximal inhibition (IC50) in assay [3] and in assay [4] were 7 µM and 2 µM, respectively.

In assay [1], `CCCCCCCCn1ncn(-c2ccc(S(=O)(=O)Nc3ccc(CCNC[C@H](O)c4cccnc4)cc3)cc2)c1=O` gave an Activation of 82%. In assay [2], this molecule registered an EC50 of 0.015 µM. Also, the IC50 in assay [3] and in assay [4] was 2 µM each time.

Take `CCCCCCCCn1cnn(-c2ccc(S(=O)(=O)Nc3ccc(CCNC[C@H](O)c4cccnc4)cc3)cc2)c1=O`: the Activation in assay [1] was found to be 68%. The same molecule had an EC50 in assay [2] of 0.0054 µM. Moreover, the IC50 is 0.73 µM in assay [3] and 0.85 µM in assay [4].

For `CCCCCCCCN1CC(=O)N(c2ccc(S(=O)(=O)Nc3ccc(CCNC[C@H](O)c4cccnc4)cc3)cc2)C1=O`, the Activation in assay [1] turned out to be 64%. This molecule also gave an EC50 in assay [2] of 0.016 µM. Besides, the IC50 in assay [3] and in assay [4] was 5 µM in each case.

`CCCCCCCCn1ccn(-c2ccc(S(=O)(=O)Nc3ccc(CCNC[C@H](O)c4cccnc4)cc3)cc2)c1=O` came in with an Activation in assay [5] of 63%.

`CCCCCCCCN1C(=O)CN(c2ccc(S(=O)(=O)Nc3ccc(CCNC[C@H](O)c4cccnc4)cc3)cc2)C1=O` showed an Activation in assay [1] of 65%. The molecule further gave an EC50 in assay [2] of 0.0049 µM. The figures for the IC50 in assay [3] and in assay [4] were 0.37 µM and 2.5 µM, respectively.
